The structures appear in SMILES notation. In brackets after ≈: the same amount, converted by molar mass. Like-named read-outs stand apart in the source and are kept apart here.

Details of data set [1]: species or system human. The conditions noted are these: in vivo.
Data set [2] relates to H. influenzae. Nature of the data set: microbe, parasite or virus in culture. The format is cell-based. The conditions noted are these: Haemophilus influenzae.
The test system of data set [3] is M. catarrhalis. Put plainly: microbe, parasite or virus in culture. The format is cell-based. The conditions noted are these: Moraxella catarrhalis.
The conditions of data set [4]: in vivo.
Data set [5] deals with intracellular P. gingivalis in KB cells. The format is cell-based.
Data set [6] has as its system Porphyromonas gingivalis. Put plainly: microbe, parasite or virus in culture. The format is cell-based, P. gingivalis. The conditions noted are these: read-out: MIC of mutants.
Data set [7] concerns S. aureus MRSA. Put plainly: microbe, parasite or virus in culture. The data set is classed as cell-based. The conditions noted are these: Staphylococcus aureus.
The conditions of data set [8]: 90% CI 86 to 97%.
Data set [9] relates to MRSA. Put plainly: microbe, parasite or virus in culture. The conditions noted are these: Staphylococcus aureus.
Data set [10] relates to MSSA. Put plainly: microbe, parasite or virus in culture. The conditions noted are these: Staphylococcus aureus.
The subject of data set [11] is M. catarrhalis. Nature of the data set: microbe, parasite or virus in culture. The data set is classed as cell-based.
Data set [12] relates to MSSA.
Data set [13] concerns S. pneumoniae.
In data set [14] the test system is H. influenzae. Nature of the data set: microbe, parasite or virus in culture. The data set is classed as cell-based. The conditions noted are these: Haemophilus influenzae. This is another data set of the same source.
For data set [15], the system named is S. pneumoniae (Sp). Nature of the data set: microbe, parasite or virus in culture. The format is cell-based. The conditions noted are these: Streptococcus pneumoniae.
Data set [16] relates to S. pneumoniae. Nature of the data set: microbe, parasite or virus in culture. The data set is classed as cell-based. The conditions noted are these: Streptococcus pneumoniae.
The test system of data set [17] is S. aureus MSSA. Put plainly: microbe, parasite or virus in culture. The format is cell-based. The conditions noted are these: Staphylococcus aureus.
Data set [18] relates to K. pneumoniae. Put plainly: microbe, parasite or virus in culture. The format is cell-based. The conditions noted are these: Klebsiella pneumoniae.
In data set [19] the test system is Streptococcus pneumoniae. Nature of the data set: microbe, parasite or virus in culture. The format is cell-based, S. pneumoniae.
In data set [20] the test system is E. coli ESBL. Nature of the data set: microbe, parasite or virus in culture. The format is cell-based.
The test system of data set [21] is S. pneumoniae (SPN). Nature of the data set: microbe, parasite or virus in culture. The conditions noted are these: Streptococcus pneumoniae.
The subject of data set [22] is S. aureus and/or streptococcal baseline pathogens. Nature of the data set: microbe, parasite or virus in culture. The conditions noted are these: Staphylococcus aureus, read-out: MIC values.
The test system of data set [23] is P. aeruginosa (PSA). Put plainly: microbe, parasite or virus in culture. The conditions noted are these: Pseudomonas aeruginosa.
For data set [24], the system named is Serratia spp. (SER). Nature of the data set: microbe, parasite or virus in culture.
In data set [25] the test system is Coag neg staphylococci (CoNS). Put plainly: organism not typed. The data set is classed as cell-based.
Data set [26] has as its system S pneumoniae (SPN). Put plainly: microbe, parasite or virus in culture. The format is cell-based.
Data set [27] relates to Viridans group streptococci (VGS). Nature of the data set: organism not typed. The data set is classed as cell-based.
Data set [28] deals with H. influenzae (Hi). Nature of the data set: microbe, parasite or virus in culture. The conditions noted are these: Haemophilus influenzae.
The subject of data set [29] is S. aureus (SA). Put plainly: microbe, parasite or virus in culture. The format is cell-based. The conditions noted are these: Staphylococcus aureus.
In data set [30] the test system is S. aureus (SA). Nature of the data set: microbe, parasite or virus in culture. The conditions noted are these: Staphylococcus aureus.
Data set [31] deals with Enterococcus spp. (ESP). Put plainly: microbe, parasite or virus in culture. The format is cell-based.
Data set [32] deals with Enterobacter spp. (ENT). Nature of the data set: microbe, parasite or virus in culture.
In data set [33] the test system is all resistant organism subsets. The format is cell-based.
The subject of data set [34] is E. coli (EC). Put plainly: microbe, parasite or virus in culture. The conditions noted are these: Escherichia coli.
For data set [35], the system named is beta-streptococci (BST). Nature of the data set: organism not typed.
The subject of data set [36] is H. influenzae (Hi).
Data set [37] has as its system Klebsiella spp. (KSP). Nature of the data set: microbe, parasite or virus in culture.
Data set [38] has as its system Acinetobacter spp. (AC). Put plainly: microbe, parasite or virus in culture.
Data set [39] has as its system Enterobacteriaceae (ENT). Nature of the data set: organism not typed. The format is cell-based.
Data set [40] has as its system M. catarrhalis (MCAT). Nature of the data set: microbe, parasite or virus in culture. The conditions noted are these: Moraxella catarrhalis.
In data set [41] the test system is S. aureus and/or streptococci. The conditions noted are these: 30 of 35 pts.
The subject of data set [42] is Enterobacter spp. (ENT).
Data set [43] has as its system S. pneumoniae (SPN).
For data set [44], the system named is Klebsiella spp. ESBL. Put plainly: microbe, parasite or virus in culture. The format is cell-based.

As for `C[C@@H](O)[C@H]1C(=O)N2C(C(=O)O)=C(S[C@@H]3CN[C@H](C(=O)Nc4cccc(C(=O)O)c4)C3)[C@H](C)[C@H]12` [ETP], in data set [1], the “Adjusted LOS” value was determined as 11.9.
Take `COc1c(N2CCNC(C)C2)c(F)cc2c(=O)c(C(=O)O)cn(C3CC3)c12` (centres unmarked) [GFX, gatifloxacin]: the MIC50 in data set [2] and in [3] was no more than 0.03 µg/mL each time.
On to `C=CC[C@@H]1/C=C(\C)C[C@H](C)C[C@H](OC)[C@H]2O[C@@](O)(C(=O)C(=O)N3CCCC[C@H]3C(=O)O[C@H](/C(C)=C/[C@@H]3CC[C@@H](O)[C@H](OC)C3)[C@H](C)[C@@H](O)CC1=O)[C@H](C)C[C@@H]2OC` [Tacrolimus, tacrolimus], for which the “concomitant drug bioavailability (AUC %) with POS vs alone” value in data set [4] was 458%.
As to `COc1c(N2C[C@@H]3CCCN[C@@H]3C2)c(F)cc2c(=O)c(C(=O)O)cn(C3CC3)c12` [moxifloxacin], the “concentration killing all intracellular P. gingivalis” value in data set [5] worked out at 100 fold MIC. Also, the MIC in [6] was greater than 32 µg/mL. Moreover, the MIC90 in [7] is 8 µg/mL (≈ 19.9 µM); in data set [9], no less than 16 µg/mL; in data set [11] (Moraxella catarrhalis), 0.125 µg/mL (≈ 0.311 µM); in data set [14], 0.125 µg/mL (≈ 0.311 µM); in [15], 0.25 µg/mL (≈ 0.623 µM); in data set [16], 0.19 µg/mL (≈ 0.473 µM). Also, the MIC90 in [17] amounted to 1 µg/mL (≈ 2.49 µM); in data set [18], 0.75 µg/mL (≈ 1.87 µM). Besides, the “AUC point estimate B/A” value in data set [8] is on record as 91%. In addition, the “AUC point estimate C/A” value in data set [8] is on record as 91%. The same compound yielded an MIC50 in data set [10] of 0.25 µg/mL (≈ 0.623 µM). For the same compound, in data set [11], the “susceptible (%)” value is recorded as 100%. Also, in data set [12], the “more active than ciprofloxacin” value is 4 fold. Moreover, the “%I” value worked out at 3% in data set [13] (2002 (n = 103)), 0% in [13] (2003 (n = 137)) and 0% in data set [13] (2004 (n = 110)). Moreover, the “%R” value was 1% in data set [13] (2002 (n = 103)), 1.5% in data set [13] (2003 (n = 137)) and 0% in data set [13] (2004 (n = 110)). Moreover, the “%S” value in data set [13] (2002 (n = 103)) came to 96%; in data set [13] (2003 (n = 137)) it was 98.5%; in data set [13] (2004 (n = 110)), 100%.
On to `CC[C@H]1OC(=O)[C@H](C)C(=O)[C@H](C)[C@@H](O[C@@H]2O[C@H](C)C[C@H](N(C)C)[C@H]2O)[C@](C)(OC)C[C@@H](C)C(=O)[C@H](C)[C@H]2N(CCCCn3cnc(-c4cccnc4)c3)C(=O)O[C@]12C` [telithromycin], for which the MIC in data set [19] is 4 µg/mL (≈ 4.93 µM).
Regarding `CN(C)c1cc(NC(=O)CNC(C)(C)C)c(O)c2c1C[C@H]1C[C@H]3[C@H](N(C)C)C(O)=C(C(N)=O)C(=O)[C@@]3(O)C(O)=C1C2=O` [tigecycline], the “% inhibited at ≤ 2 mg/L” value is listed as greater than 99% in data set [20] ((279)), 100% in [26] (CIP-R (171)), greater than 99% in [26] (TET R (733)) and 100% in [26] ([…]). Besides, the “% inhibited at ≤ 4 mg/L” value was 100% in data set [20] ((279)), greater than 99% in data set [26] (TET R (733)), 98% in data set [39] and 100% in data set [44] ((317)). For the same compound, the MIC50 in data set [20] (Escherichia coli) was 0.25 µg/mL (≈ 0.427 µM); in data set [21], no more than 0.12 µg/mL; in data set [24], 1 µg/mL (≈ 1.71 µM); in data set [25], no more than 0.12 µg/mL; in [26] (Streptococcus pneumoniae), no more than 0.12 µg/mL; in data set [27] it was no more than 0.12 µg/mL. For the same compound, the MIC50 was 0.5 µg/mL (≈ 0.854 µM) in [28]; 0.25 µg/mL (≈ 0.427 µM) in [29]; 0.25 µg/mL (≈ 0.427 µM) in data set [30]; no more than 0.12 µg/mL in data set [31] (Enterococcus); 0.5 µg/mL (≈ 0.854 µM) in data set [32]; 0.25 µg/mL (≈ 0.427 µM) in data set [34]. In addition, the MIC50 in data set [35] is no more than 0.12 µg/mL; in data set [36] (NP (16)), 0.5 µg/mL (≈ 0.854 µM); in data set [37], 0.5 µg/mL (≈ 0.854 µM); in [38], 1 µg/mL (≈ 1.71 µM); in data set [39], 0.5 µg/mL (≈ 0.854 µM); in [40] (CARTI (600)) it was no more than 0.12 µg/mL. Moreover, the MIC50 in data set [40] (NP (7)) was 0.25 µg/mL (≈ 0.427 µM); in data set [43] (NP (117)), ≤0.12/≤0.12 mg/L; in [44] (Klebsiella), 0.5 µg/mL (≈ 0.854 µM). The MIC90 in data set [20] (Escherichia coli) was 0.5 µg/mL (≈ 0.854 µM); in [21], no more than 0.12 µg/mL; in [23], 16 µg/mL (≈ 27.3 µM); in data set [24] it was 4 µg/mL (≈ 6.83 µM); in data set [25], 0.5 µg/mL (≈ 0.854 µM); in data set [26] (Streptococcus pneumoniae, CIP-R (171)) it was no more than 0.12 µg/mL. Moreover, the MIC90 in data set [26] (Streptococcus pneumoniae, TET R (733)) was no more than 0.12 µg/mL; in [26] (Streptococcus pneumoniae, […]), 0.12 µg/mL (≈ 0.205 µM); in data set [27] it was 0.12 µg/mL (≈ 0.205 µM); in [28], 1 µg/mL (≈ 1.71 µM); in data set [29], 0.5 µg/mL (≈ 0.854 µM); in [30], 0.5 µg/mL (≈ 0.854 µM). The MIC90 in [31] (Enterococcus) was 0.25 µg/mL (≈ 0.427 µM); in data set [32] it was 2 µg/mL (≈ 3.41 µM); in data set [34] it was 0.5 µg/mL (≈ 0.854 µM); in data set [35], no more than 0.12 µg/mL; in data set [36] (NP), 1 µg/mL (≈ 1.71 µM); in [37], 1 µg/mL (≈ 1.71 µM). Besides, the MIC90 in data set [38] was 4 µg/mL (≈ 6.83 µM); in data set [39] it was 4 µg/mL (≈ 6.83 µM); in data set [40] it was 0.25 µg/mL (≈ 0.427 µM); in data set [43] (NP), ≤0.12/≤0.12 mg/L; in [44] (Klebsiella) it was 2 µg/mL (≈ 3.41 µM). Besides, the MIC in data set [22] is 0.06 to 0.5 µg/mL (≈ 0.102 to 0.854 µM); in data set [34] (read-out: MICs), no more than 2 µg/mL; in data set [37] (read-out: MICs) it was no more than 2 µg/mL. Further, the “MIC 50%” value in data set [26] (CIP-R (171)) was no more than 0.12 µg/mL; in data set [26] (TET R (733)) it was no more than 0.12 µg/mL; in data set [31] (Van B (95)) it was no more than 0.12 µg/mL; in data set [39], 0.25 µg/mL (≈ 0.427 µM). For the same compound, the “MIC 90%” value came to 0.25 µg/mL (≈ 0.427 µM) in data set [31] (Van B (95)) and 2 µg/mL (≈ 3.41 µM) in data set [39]. For the same compound, the “Total % Inhibited at ≤ 2 mg/L” value in data set [33] came to 97%. In addition, the “Total % Inhibited at ≤ 4 mg/L” value in data set [33] is greater than 99%. This compound also showed a clinical cure in data set [41] of 85.7%. Also, the “% ≤2 mg/L” value in data set [42] was 98%. The “% ≤4 mg/L” value in [42] amounted to 100%.

The values are drawn from article PMC7129916 (Clinical Microbiology and Infection, 2015).
